Experimental data reported in US8299111B2, “Compounds which modulate the CB2 receptor” (Boehringer Ingelheim International GmbH, priority 2006, dated 2012).

biological target: T1, human CB2R (Homo sapiens, UniProt P34972); experiment: CB2R mediated modulation of cAMP synthesis; assay type: cell-based; details: found through the use of the above described assays (binding and cAMP); CHO cells expressing human CB2R, forskolin-stimulated cAMP
T1 construct: host or cells: CHO cells
Method in brief: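 EC50 values reflect inhibition of cAMP made in response to 10 uM forskolin (with 1 mM IBMX, 0.25% BSA) over 30 min at 37 °C in human CB2R-expressing CHO cells. The window runs from forskolin alone to 1 uM CP55940; curves fitted with a four-parameter logistic model.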

T1 sequence (P34972 whole entry): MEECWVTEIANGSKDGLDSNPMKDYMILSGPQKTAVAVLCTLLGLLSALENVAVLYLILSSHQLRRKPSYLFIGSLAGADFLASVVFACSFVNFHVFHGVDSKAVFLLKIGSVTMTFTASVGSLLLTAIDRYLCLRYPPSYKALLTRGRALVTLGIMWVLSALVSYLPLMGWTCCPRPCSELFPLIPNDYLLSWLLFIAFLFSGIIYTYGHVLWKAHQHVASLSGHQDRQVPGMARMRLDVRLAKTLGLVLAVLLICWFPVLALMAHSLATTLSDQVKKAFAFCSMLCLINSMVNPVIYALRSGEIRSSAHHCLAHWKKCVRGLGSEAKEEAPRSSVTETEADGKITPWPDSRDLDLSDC

Compound | agonistic activity
CC(C)(C(=O)Nc1ccc(C(F)(F)F)cn1)S(=O)(=O)c1ccc(S(C)(=O)=O)cc1 [2-methyl-2-{[4-(methylsulfonyl)phenyl]sulfonyl}-N-[5-(trifluoromethyl)pyridin-2-yl]propanamide] | agonistic activity
CC(C)(C(=O)Nc1cc(-c2cccs2)no1)S(=O)(=O)c1ccc(Cl)cc1 [2-(4-Chloro-benzenesulfonyl)-2-methyl-N-(3-thiophen-2-yl-isoxazol-5-yl)-propionamide] | agonistic activity
CCc1ccnc(NC(=O)C(C)(C)S(=O)(=O)c2ccc(Cl)cc2)c1 [2-(4-Chloro-benzenesulfonyl)-N-(4-ethyl-pyridin-2-yl)-2-methyl-propionamide] | agonistic activity
CC(C)(C(=O)Nc1ccc2ccccc2n1)S(=O)(=O)c1ccc(C(F)(F)F)nc1 [2-methyl-N-quinolin-2-yl-2-{[6-(trifluoromethyl)pyridin-3-yl]sulfonyl}propanamide] | agonistic activity
Cn1nc(-c2ccccc2)cc1NC(=O)C(C)(C)S(=O)(=O)c1ccc(C(F)(F)F)nc1 [2-Methyl-N-(2-methyl-5-phenyl-2H-pyrazol-3-yl)-2-(6-trifluoromethyl-pyridine-3-sulfonyl)-propionamide] | agonistic activity
CC(C)(C(=O)Nc1ccc(C(F)(F)F)cn1)S(=O)(=O)c1ccc(F)cc1 [2-(4-Fluoro-benzenesulfonyl)-2-methyl-N-(5-trifluoromethyl-pyridin-2-yl)-propionamide] | agonistic activity
Cn1nc(C2CCCC2)cc1NC(=O)C(C)(C)S(=O)(=O)c1ccc(Cl)cc1 [2-(4-Chloro-benzenesulfonyl)-N-(5-cyclopentyl-2-methyl-2H-pyrazol-3-yl)-2-methyl-propionamide] | agonistic activity
CC(C)(C)c1ccc(NC(=O)C(C)(C)S(=O)(=O)c2ccc(Cl)cc2F)cc1 [N-(4-tert-butylphenyl)-2-[(4-chloro-2-fluorophenyl)sulfonyl]-2-methylpropanamide] | agonistic activity
CC(C)(C)c1cc(NC(=O)C(C)(C)S(=O)(=O)c2ccc(C(F)(F)F)cc2)no1 [N-(5-tert-Butyl-isoxazol-3-yl)-2-methyl-2-(4-trifluoromethyl-benzenesulfonyl)-propionamide] | agonistic activity
CC(C)(C(=O)Nc1nc2ccccc2o1)S(=O)(=O)c1ccc(Cl)cc1 [N-Benzooxazol-2-yl-2-(4-chloro-benzenesulfonyl)-2-methyl-propionamide] | agonistic activity
Cc1sc(NC(=O)C(C)(C)S(=O)(=O)c2ccc(Cl)cc2F)nc1-c1ccccc1 [2-[(4-chloro-2-fluorophenyl)sulfonyl]-2-methyl-N-(5-methyl-4-phenyl-1,3-thiazol-2-yl)propanamide] | agonistic activity
CC(C)(C(=O)Nc1cc(C(F)(F)F)ccn1)S(=O)(=O)c1ccc(Cl)cc1 [2-(4-Chloro-benzenesulfonyl)-2-methyl-N-(4-trifluoromethyl-pyridin-2-yl)-propionamide] | agonistic activity
CCc1sc(NC(=O)C(C)(C)S(=O)(=O)c2ccc(F)cc2F)nc1-c1ccccc1 [2-[(2,4-difluorophenyl)sulfonyl]-N-(5-ethyl-4-phenyl-1,3-thiazol-2-yl)-2-methylpropanamide] | agonistic activity
CC(C)C(C(=O)Nc1cc(C(C)(C)C)on1)S(=O)(=O)c1ccc(C(F)(F)F)cc1 (stereo not shown) [N-(5-tert-Butyl-isoxazol-3-yl)-3-methyl-2-(4-trifluoromethyl-benzenesulfonyl)-butyramide] | agonistic activity
CC(C)(C)c1cc(NC(=O)C(C)(C)S(=O)(=O)c2ccc(Cl)cc2Cl)no1 [N-(5-tert-Butyl-isoxazol-3-yl)-2-(2,4-dichloro-benzenesulfonyl)-2-methyl-propionamide] | agonistic activity
CC(C)(C(=O)Nc1ccccn1)S(=O)(=O)c1ccc(Cl)cc1 [2-(4-Chloro-benzenesulfonyl)-2-methyl-N-pyridin-2-yl-propionamide] | agonistic activity
CC(C)(C(=O)Nc1nc(-c2ccc(F)c(F)c2)cs1)S(=O)(=O)c1ccc(Cl)cc1 [2-(4-Chloro-benzenesulfonyl)-N-[4-(3,4-difluoro-phenyl)-thiazol-2-yl]-2-methyl-propionamide] | agonistic activity
O=C(Nc1cccc(C(F)(F)F)n1)C1(S(=O)(=O)c2ccc(C(F)(F)F)cc2)CC1 [1-(4-Trifluoromethyl-benzenesulfonyl)-cyclopropanecarboxylic acid (6-trifluoromethyl-pyridin-2-yl)-amide] | agonistic activity
Cc1c(-c2ccccc2)noc1NC(=O)C(C)(C)S(=O)(=O)c1ccc(Cl)cc1 [2-(4-Chloro-benzenesulfonyl)-2-methyl-N-(4-methyl-3-phenyl-isoxazol-5-yl)-propionamide] | agonistic activity
CC(C)(C(=O)Nc1ccc(C(F)(F)F)cn1)S(=O)(=O)c1ccc(C(F)(F)F)cc1 [2-Methyl-2-(4-trifluoromethyl-benzenesulfonyl)-N-(5-trifluoromethyl-pyridin-2-yl)-propionamide] | agonistic activity
CC(C)(C)c1csc(NC(=O)C2(S(=O)(=O)c3ccc(C(F)(F)F)cc3)CC2)n1 [1-(4-Trifluoromethyl-benzenesulfonyl)-cyclopropanecarboxylic acid (4-tert-butyl-thiazol-2-yl)-amide] | agonistic activity
CC(C)(C(=O)Nc1nc(-c2ccc(Cl)cc2)cs1)S(=O)(=O)c1ccc(F)cc1F [N-[4-(4-Chloro-phenyl)-thiazol-2-yl]-2-(2,4-difluoro-benzenesulfonyl)-2-methyl-propionamide] | agonistic activity
Cc1nc(NC(=O)C(C)(C)S(=O)(=O)c2cccc(C(F)(F)F)c2)sc1C(C)(C)C [N-(5-tert-Butyl-4-methyl-thiazol-2-yl)-2-methyl-2-(3-trifluoromethyl-benzenesulfonyl)-propionamide] | agonistic activity
CC(C)(C(=O)Nc1ccc(C(F)(F)F)cn1)S(=O)(=O)c1ccccc1 [2-Benzenesulfonyl-2-methyl-N-(5-trifluoromethyl-pyridin-2-yl)-propionamide] | agonistic activity
Cc1ccc(S(=O)(=O)C(C)(C)C(=O)Nc2nc(-c3ccc(Cl)cc3)cs2)cc1 [N-[4-(4-Chloro-phenyl)-thiazol-2-yl]-2-methyl-2-(toluene-4-sulfonyl)-propionamide] | agonistic activity
CC(C)(C(=O)Nc1ccc(C(F)(F)F)cn1)S(=O)(=O)c1ccc(N2CCOCC2)nc1 [2-Methyl-2-(6-morpholin-4-yl-pyridine-3-sulfonyl)-N-(5-trifluoromethyl-pyridin-2-yl)-propionamide] | agonistic activity
CC(C)(C)c1csc(NC(=O)C(C)(C)S(=O)(=O)c2cc(F)ccc2F)n1 [N-(4-tert-Butyl-thiazol-2-yl)-2-(2,5-difluoro-benzenesulfonyl)-2-methyl-propionamide] | agonistic activity
CC(C)c1cnc(NC(=O)C(C)(C)S(=O)(=O)c2ccc(Cl)cc2)s1 [2-(4-Chloro-benzenesulfonyl)-N-(5-isopropyl-thiazol-2-yl)-2-methyl-propionamide] | agonistic activity
